Key:
Type in all cases: biochemical
[1] = target: T1, SIK2 (Homo sapiens, UniProt Q9H0K1); assay: SIK2 kinase assay, IMAP fluorescence polarization; conditions: 50 or 100 μM ATP, average
T1 construct: purchased Life Technologies
Outline: (§1)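 Kinases (0.6–13 nM) incubated 60 min at room temperature with 100 nM FAM-Abltide, FAM-Srctide or FAM-HDAC peptide and 50 or 100 μM ATP in 20 mM Tris pH 7.2, 4 mM MgCl2, 0.2% BSA, 2 mM DTT. IMAP binding reagent (85:15 buffer A:B; 30:70 for Src) stopped reactions; fluorescence polarization read; compounds tested 0.00005–1 μM.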

[2] = target: T2, SIK1 (Homo sapiens, UniProt P57059); assay: SIK1 kinase assay, IMAP fluorescence polarization; conditions: 50 or 100 μM ATP, average
T2 construct: purchased Life Technologies
T2 sequence (P57059 whole entry): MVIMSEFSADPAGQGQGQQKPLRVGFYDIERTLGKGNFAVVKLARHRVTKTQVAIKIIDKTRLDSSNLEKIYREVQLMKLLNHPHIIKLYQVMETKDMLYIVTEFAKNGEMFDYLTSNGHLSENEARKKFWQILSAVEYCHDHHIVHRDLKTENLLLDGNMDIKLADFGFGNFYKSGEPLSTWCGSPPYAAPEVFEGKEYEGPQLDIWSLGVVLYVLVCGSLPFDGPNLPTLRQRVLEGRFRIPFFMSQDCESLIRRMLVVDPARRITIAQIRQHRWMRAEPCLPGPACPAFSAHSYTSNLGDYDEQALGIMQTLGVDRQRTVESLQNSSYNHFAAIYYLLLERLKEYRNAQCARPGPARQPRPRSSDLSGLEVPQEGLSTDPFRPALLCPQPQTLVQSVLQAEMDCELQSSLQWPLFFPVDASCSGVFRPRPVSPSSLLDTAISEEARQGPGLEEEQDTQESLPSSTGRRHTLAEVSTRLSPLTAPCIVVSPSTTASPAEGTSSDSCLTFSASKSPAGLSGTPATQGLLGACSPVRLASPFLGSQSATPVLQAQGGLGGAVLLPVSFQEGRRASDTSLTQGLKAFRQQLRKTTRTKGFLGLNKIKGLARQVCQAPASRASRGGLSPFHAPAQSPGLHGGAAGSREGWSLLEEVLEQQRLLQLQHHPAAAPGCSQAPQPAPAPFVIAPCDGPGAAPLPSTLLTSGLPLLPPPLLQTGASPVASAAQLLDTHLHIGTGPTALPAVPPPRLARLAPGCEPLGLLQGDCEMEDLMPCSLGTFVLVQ
Outline: as §1

[3] = target: T3, SIK3 (Homo sapiens, UniProt Q9Y2K2); assay: SIK3 kinase assay, IMAP fluorescence polarization; conditions: 50 or 100 μM ATP, average
T3 construct: purchased Life Technologies
T3 sequence (Q9Y2K2 whole entry): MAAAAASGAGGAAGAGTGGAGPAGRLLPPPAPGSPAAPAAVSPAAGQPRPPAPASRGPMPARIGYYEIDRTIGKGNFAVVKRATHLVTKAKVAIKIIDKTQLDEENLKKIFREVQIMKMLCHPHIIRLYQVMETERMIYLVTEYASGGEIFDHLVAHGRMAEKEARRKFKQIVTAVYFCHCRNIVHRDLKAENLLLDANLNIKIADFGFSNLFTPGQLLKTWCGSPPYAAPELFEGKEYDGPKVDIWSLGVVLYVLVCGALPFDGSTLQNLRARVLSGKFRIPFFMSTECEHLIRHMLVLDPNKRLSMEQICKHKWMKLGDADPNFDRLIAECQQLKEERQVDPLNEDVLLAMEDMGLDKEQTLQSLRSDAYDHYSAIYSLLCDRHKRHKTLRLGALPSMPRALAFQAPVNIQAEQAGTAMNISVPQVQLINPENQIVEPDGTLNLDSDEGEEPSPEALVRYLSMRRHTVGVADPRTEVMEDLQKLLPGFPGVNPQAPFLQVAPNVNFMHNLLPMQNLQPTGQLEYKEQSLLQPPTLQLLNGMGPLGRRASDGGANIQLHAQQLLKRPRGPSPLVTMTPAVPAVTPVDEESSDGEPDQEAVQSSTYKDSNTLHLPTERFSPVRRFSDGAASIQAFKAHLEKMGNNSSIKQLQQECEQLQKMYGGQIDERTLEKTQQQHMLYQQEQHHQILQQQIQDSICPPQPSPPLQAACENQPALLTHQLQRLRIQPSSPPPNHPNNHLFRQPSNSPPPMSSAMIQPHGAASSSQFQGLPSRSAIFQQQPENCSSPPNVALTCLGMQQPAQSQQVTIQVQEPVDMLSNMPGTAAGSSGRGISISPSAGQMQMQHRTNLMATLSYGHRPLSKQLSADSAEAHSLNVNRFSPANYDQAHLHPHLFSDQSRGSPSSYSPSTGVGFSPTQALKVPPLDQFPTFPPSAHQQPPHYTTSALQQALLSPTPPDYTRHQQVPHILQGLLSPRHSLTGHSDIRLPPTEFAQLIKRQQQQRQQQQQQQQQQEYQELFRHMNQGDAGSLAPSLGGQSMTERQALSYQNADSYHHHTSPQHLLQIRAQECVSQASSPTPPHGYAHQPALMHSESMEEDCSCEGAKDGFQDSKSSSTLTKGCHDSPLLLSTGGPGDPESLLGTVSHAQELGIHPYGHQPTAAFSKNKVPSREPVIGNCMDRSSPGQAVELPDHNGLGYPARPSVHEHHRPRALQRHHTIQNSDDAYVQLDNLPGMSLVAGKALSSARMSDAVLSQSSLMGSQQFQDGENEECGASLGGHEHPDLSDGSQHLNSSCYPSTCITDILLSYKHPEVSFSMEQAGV
Outline: as §1

[4] = target: T4, Abl (Homo sapiens, UniProt P00519); assay: Abl kinase assay, IMAP fluorescence polarization; conditions: 50 or 100 μM ATP, average
T4 construct: purchased Life Technologies
T4 sequence (P00519 whole entry): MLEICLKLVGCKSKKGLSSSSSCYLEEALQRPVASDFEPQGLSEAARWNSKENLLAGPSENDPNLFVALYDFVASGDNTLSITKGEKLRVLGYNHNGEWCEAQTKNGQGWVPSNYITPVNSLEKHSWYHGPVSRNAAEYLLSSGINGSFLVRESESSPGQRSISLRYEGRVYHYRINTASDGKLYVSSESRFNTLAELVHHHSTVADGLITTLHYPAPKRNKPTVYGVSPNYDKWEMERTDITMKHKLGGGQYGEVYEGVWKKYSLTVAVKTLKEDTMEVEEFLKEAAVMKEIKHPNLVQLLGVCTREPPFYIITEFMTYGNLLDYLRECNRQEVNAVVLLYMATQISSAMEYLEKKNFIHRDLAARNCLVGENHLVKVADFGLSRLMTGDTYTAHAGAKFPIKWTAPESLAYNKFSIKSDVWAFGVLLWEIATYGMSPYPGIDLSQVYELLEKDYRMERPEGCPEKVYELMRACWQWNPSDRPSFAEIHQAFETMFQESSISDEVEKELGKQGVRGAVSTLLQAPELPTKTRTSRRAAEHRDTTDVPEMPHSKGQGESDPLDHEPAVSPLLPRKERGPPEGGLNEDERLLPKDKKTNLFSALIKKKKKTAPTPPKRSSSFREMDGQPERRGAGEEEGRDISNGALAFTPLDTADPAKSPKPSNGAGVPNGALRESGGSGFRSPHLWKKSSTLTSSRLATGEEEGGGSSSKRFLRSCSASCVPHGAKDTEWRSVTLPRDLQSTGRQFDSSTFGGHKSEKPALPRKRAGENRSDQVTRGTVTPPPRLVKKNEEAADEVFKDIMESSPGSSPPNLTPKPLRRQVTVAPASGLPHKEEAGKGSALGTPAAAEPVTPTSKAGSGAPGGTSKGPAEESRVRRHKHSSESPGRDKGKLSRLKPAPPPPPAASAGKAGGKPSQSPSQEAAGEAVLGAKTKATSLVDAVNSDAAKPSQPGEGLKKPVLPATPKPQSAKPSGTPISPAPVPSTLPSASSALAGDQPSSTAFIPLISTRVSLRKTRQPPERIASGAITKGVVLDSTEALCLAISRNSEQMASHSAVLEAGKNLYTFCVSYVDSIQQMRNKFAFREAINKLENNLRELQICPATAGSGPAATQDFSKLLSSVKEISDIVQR
Outline: as §1

[5] = target: T5, Src (Homo sapiens, UniProt P12931); assay: Src kinase assay, IMAP fluorescence polarization; conditions: 50 or 100 μM ATP, average
T5 construct: purchased Life Technologies
T5 sequence (P12931 whole entry): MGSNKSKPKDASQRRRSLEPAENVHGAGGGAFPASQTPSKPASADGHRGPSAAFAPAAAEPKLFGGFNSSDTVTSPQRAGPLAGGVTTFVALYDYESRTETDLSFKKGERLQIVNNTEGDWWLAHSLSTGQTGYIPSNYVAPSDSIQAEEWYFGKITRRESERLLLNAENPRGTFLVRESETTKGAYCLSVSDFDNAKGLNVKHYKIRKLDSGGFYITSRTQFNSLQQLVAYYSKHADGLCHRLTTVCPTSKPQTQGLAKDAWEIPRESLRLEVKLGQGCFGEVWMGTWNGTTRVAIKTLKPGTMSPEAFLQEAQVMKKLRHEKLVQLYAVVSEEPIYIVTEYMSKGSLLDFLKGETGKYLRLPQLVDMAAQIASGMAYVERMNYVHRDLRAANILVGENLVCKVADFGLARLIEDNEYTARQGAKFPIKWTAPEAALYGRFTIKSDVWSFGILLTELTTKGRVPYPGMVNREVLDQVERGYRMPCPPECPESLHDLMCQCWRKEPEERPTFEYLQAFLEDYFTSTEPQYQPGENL
Outline: as §1

[6] = target: T6, EPHA2 (Homo sapiens, UniProt P29317); assay: EPHA2 kinase assay, IMAP fluorescence polarization; conditions: 50 or 100 μM ATP, Tris pH 8.5, average
T6 construct: purchased Life Technologies
T6 sequence (P29317 24-976): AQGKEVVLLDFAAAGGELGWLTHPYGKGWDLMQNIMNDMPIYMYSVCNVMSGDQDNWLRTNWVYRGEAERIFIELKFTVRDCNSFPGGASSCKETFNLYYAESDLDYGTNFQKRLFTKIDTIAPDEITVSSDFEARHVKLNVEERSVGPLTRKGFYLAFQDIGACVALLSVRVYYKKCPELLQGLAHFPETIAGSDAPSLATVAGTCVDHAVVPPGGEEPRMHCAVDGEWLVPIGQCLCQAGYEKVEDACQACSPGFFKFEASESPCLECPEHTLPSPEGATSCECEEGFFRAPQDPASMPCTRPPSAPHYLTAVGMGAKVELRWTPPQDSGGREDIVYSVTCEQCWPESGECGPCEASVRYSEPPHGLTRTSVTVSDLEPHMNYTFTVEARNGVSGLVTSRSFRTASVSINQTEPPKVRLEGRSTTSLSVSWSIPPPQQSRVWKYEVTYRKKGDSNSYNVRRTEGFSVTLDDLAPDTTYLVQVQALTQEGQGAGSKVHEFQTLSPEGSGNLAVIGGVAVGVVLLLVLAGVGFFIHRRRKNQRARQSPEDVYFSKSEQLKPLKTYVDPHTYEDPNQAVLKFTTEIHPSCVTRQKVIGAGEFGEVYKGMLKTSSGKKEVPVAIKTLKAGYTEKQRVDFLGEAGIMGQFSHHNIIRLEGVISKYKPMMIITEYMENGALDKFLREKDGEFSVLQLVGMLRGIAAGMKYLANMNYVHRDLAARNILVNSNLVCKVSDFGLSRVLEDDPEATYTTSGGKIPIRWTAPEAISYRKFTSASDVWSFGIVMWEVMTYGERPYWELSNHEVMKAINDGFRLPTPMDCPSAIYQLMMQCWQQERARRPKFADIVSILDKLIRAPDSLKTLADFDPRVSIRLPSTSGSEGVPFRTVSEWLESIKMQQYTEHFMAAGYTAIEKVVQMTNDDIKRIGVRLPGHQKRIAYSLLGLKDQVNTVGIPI

Row | Structure (SMILES) | Ki [1] | Ki [2] | Ki [3] | Ki [4] | Ki [5] | Ki [6]
1 | Cc1cccc(F)c1-c1cc(NC2CCN(C)CC2)c2cc(N)ncc2n1 [Example 121, 2-(2-Fluoro-6-methyl-phenyl)-N4-(1-methyl-4-piperidyl)-1,7-naphthyridine-4,6-diamine] | 46 nM | 178 nM | 488 nM | > 10000 nM | > 10000 nM | 2650 nM
2 | Cc1cccc(F)c1-c1cc(NC2CCN(C)CC2)c2ccncc2n1 [Example 122, 2-(2-Fluoro-6-methyl-phenyl)-N-(1-methyl-4-piperidyl)-1,7-naphthyridin-4-amine] | 121 nM | 266 nM | 531 nM | > 10000 nM | > 10000 nM | > 10000 nM
3 | Cc1cccc(F)c1-c1cc(NC2CCNCC2)c2ncncc2c1 [Example 123, 6-(2-Fluoro-6-methyl-phenyl)-N-(4-piperidyl)quinazolin-8-amine] | 1.86 nM | 2.72 nM | 6.92 nM | > 1000 nM | > 1000 nM | 216 nM
4 | Cc1cccc(F)c1-c1cc(NC2CCNCC2)c2nc(N)ncc2c1 [Example 124, 6-(2-fluoro-6-methyl-phenyl)-N8-(4-piperidyl)quinazoline-2,8-diamine] | 0.0472 nM | 0.338 nM | 0.354 nM | 6.13 nM | 17.1 nM | 48.6 nM
5 | Cc1cccc(F)c1-c1cc(NC2CCN(C)CC2)c2ncncc2c1 [Example 125, 6-(2-Fluoro-6-methyl-phenyl)-N-(1-methyl-4-piperidyl)quinazolin-8-amine] | 1.37 nM | 2.99 nM | 5 nM | > 1000 nM | > 1000 nM | 244 nM
6 | CCN1CCC(Nc2cc(-c3c(C)cccc3F)cc3cncnc23)CC1 [Example 126, N-(1-Ethyl-4-piperidyl)-6-(2-fluoro-6-methyl-phenyl)quinazolin-8-amine] | 3.01 nM | 2.95 nM | 6.35 nM | 92.7 nM | 539 nM | 302 nM
7 | CCN1CCC(Nc2cc(-c3c(C)cccc3F)cc3cnc(N)nc23)CC1 [Example 127, N8-(1-Ethyl-4-piperidyl)-6-(2-fluoro-6-methyl-phenyl)quinazoline-2,8-diamine] | 0.168 nM | 0.647 nM | 1.22 nM | 7.16 nM | 30.8 nM | 149 nM
8 | CCN1CCC(Nc2cc(-c3c(C)cccc3Cl)cc3cnc(N)nc23)CC1 [Example 128, 6-(2-chloro-6-methyl-phenyl)-N8-(1-ethyl-4-piperidyl)quinazoline-2,8-diamine] | 0.184 nM | 0.409 nM | 1.46 nM | 26.4 nM | 27.4 nM | 20 nM
9 | Cc1cccc(Cl)c1-c1cc(NC2CCN(C)CC2)c2nc(N)ncc2c1 [Example 129, 6-(2-chloro-6-methyl-phenyl)-N8-(1-methyl-4-piperidyl)quinazoline-2,8-diamine] | 0.0784 nM | 0.176 nM | 0.339 nM | 17.4 nM | 19.3 nM | 18.1 nM
10 | Cc1cccc(Cl)c1-c1cc(NC2CCN(C)CC2)c2ncncc2c1 [Example 130, 6-(2-chloro-6-methyl-phenyl)-N-(1-methyl-4-piperidyl)quinazolin-8-amine] | 2.87 nM | 5.53 nM | 17.2 nM | > 10000 nM | 549 nM | 85.3 nM
11 | CCN1CCC(Nc2cc(-c3c(C)cccc3Cl)cc3cncnc23)CC1 [Example 131, 6-(2-chloro-6-methyl-phenyl)-N-(1-ethyl-4-piperidyl)quinazolin-8-amine] | 5.59 nM | 5.39 nM | 20.9 nM | 237 nM | 285 nM | 75.6 nM
12 | Cc1cccc(F)c1-c1cc(NC2CCN(C)CC2)c2nc(N)ncc2c1 [Example 132, 6-(2-fluoro-6-methyl-phenyl)-N8-(1-methyl-4-piperidyl)quinazoline-2,8-diamine] | 0.0399 nM | 0.317 nM | 0.45 nM | 8.63 nM | 46.3 nM | 58.8 nM

Reference: patent publication US12637428B2, “Isoquinoline derivatives as SIK2 inhibitors” (Cancer Research Technology Limited, priority 2019, dated 2026)
